The values below come from patent US8044082B2, “N-phenylacetamide inhibitors of the enzyme SOAT-1 and pharmaceutical/cosmetic compositions comprised thereof” (Galderma Research & Development, priority 2007, dated 2011).

What is called melting point is the temperature of the solid-liquid transition. For the compound `CC(C)c1cccc(C(C)C)c1NC(=O)CN1C(=O)N(c2ccccc2)C2(CCCCC2)C1=O` [compound (I.2), N-(2,6-Diisopropylphenyl)-2-(2,4-dioxo-1-phenyl-1,3-diazaspiro[4.5]dec-3-yl)acetamide], the melting point came to 245 °C. `Cc1cc(C(=O)N(C)C2CCCCC2)cc(C)c1NC(=O)CN1C(=O)N(c2ccccc2)C2(CCCCC2)C1=O` [compound (I.3), N-(Cyclohexyl)-4-[2-(2,4-dioxo-1-phenyl-1,3-diazaspiro[4.5]dec-3-yl]-acetylamino]-3,5,N-trimethylbenzamide]: the melting point came out at 177 °C. `Cc1cc(C(=O)N(C)c2ccccc2)cc(C)c1NC(=O)CN1C(=O)N(c2ccccc2)C2(CCCCC2)C1=O` [compound (I.4), 4-[2-(2,4-Dioxo-1-phenyl-1,3-diazaspiro[4.5]dec-3-y]acetylamino]-3,5,N-tri methyl-N-phenylbenzamide] gave a melting point of 242 °C. Turning to `CC(C)c1cccc(C(C)C)c1NC(=O)CN1C(=O)N(c2ccc(Cl)cc2)C2(CCCCC2)C1=O` [compound (I.6), 2-[1-(4-Chlorophenyl)-2,4-dioxo-1,3-diazaspiro[4.5]dec-3-yl]-N-(2,6-di-isopropylphenyl)acetamide], the melting point came out at 237 °C. Then `COc1ccc(N2C(=O)N(CC(=O)Nc3c(C(C)C)cccc3C(C)C)C(=O)C23CCCCC3)cc1` [compound (I.8), N-(2,6-Diisopropylphenyl)-2-[1-(4-methoxyphenyl)-2,4-dioxo-1,3-diazaspiro[4.5]dec-3-yl]acetamide], with 193 °C. In the case of `CC(C)c1cccc(C(C)C)c1NC(=O)CN1C(=O)N(c2ccccc2)C2(CCCCCC2)C1=O` [compound (I.9), N-(2,6-Diisopropylphenyl)-2-(2,4-dioxo-1-phenyl-1,3-diazaspiro[4.6]undec-3-yl)acetamide], the melting point is 230 °C. `CC(C)c1cccc(C(C)C)c1NC(=O)CN1C(=O)N(c2cccc(F)c2)C2(CCCCC2)C1=O` [compound (I.11), N-(2,6-Diisopropylphenyl)-2-[1-(3-fluorophenyl)-2,4-dioxo-1,3-diazaspiro[4.5]dec-3-yl]acetamide] showed a melting point of 234 °C. The compound `CC(C)c1cccc(C(C)C)c1NC(=O)CN1C(=O)N(c2cccc(Cl)c2)C2(CCCCC2)C1=O` [compound (I.12), 2-[1-(3-Chlorophenyl)-2,4-dioxo-1,3-diazaspiro[4.5]dec-3-yl]-N-(2,6-di-isopropylphenyl)acetamide] registered a melting point of 240 °C. As for `CC(C)c1cccc(C(C)C)c1NC(=O)CN1C(=O)N(C2CCCC2)C2(CCCCC2)C1=O` [compound (I.13), 2-(1-Cyclopentyl-2,4-dioxo-1,3-diazaspiro[4.5]dec-3-yl)-N-(2,6-diisopropyl-phenyl)acetamide], the melting point amounted to 257 °C. Regarding `CC(C)c1cccc(C(C)C)c1NC(=O)CN1C(=O)N(C2CCCCCC2)C2(CCCCC2)C1=O` [compound (I.15)], the melting point worked out at 248 °C. As to `Cc1cccc(N2C(=O)N(CC(=O)Nc3c(C(C)C)cccc3C(C)C)C(=O)C23CCCCC3)c1` [compound (I.16), N-(2,6-Diisopropylphenyl)-2-(2,4-dioxo-1-m-tolyl-1,3-diazaspiro[4.5]dec-3-yl)acetamide], the melting point stood at 215 °C.

The compound `CC(C)c1cccc(C(C)C)c1NC(=O)CN1C(=O)N(c2ccc(F)cc2)C2(CCCC2)C1=O` [compound (I.17), N-(2,6-Diisopropylphenyl)-2-[1-(4-fluorophenyl)-2,4-dioxo-1,3-diazaspiro[4.4]non-3-yl]acetamide] had a melting point of 268 °C. Compound `COc1cccc(N2C(=O)N(CC(=O)Nc3c(C(C)C)cccc3C(C)C)C(=O)C23CCCCC3)c1` [compound (I.18), N-(2,6-Diisopropylphenyl)-2-[1-(3-methoxyphenyl)-2,4-dioxo-1,3-diazaspiro[4.5]dec-3-yl]acetamide] came in with a melting point of 198 °C. `CC(C)c1cccc(C(C)C)c1NC(=O)CN1C(=O)N(c2ccccc2F)C2(CCCCC2)C1=O` [compound (I.19)] had a melting point of 231 °C. In turn, `CC(C)c1cccc(C(C)C)c1NC(=O)CN1C(=O)N(c2ccccc2Cl)C2(CCCCC2)C1=O` [compound (I.20), 2-[1-(2-Chlorophenyl)-2,4-dioxo-1,3-diazaspiro[4.5]dec-3-yl]-N-(2,6-di-isopropylphenyl)acetamide] yielded a melting point of 252 °C.

`Cc1ccccc1N1C(=O)N(CC(=O)Nc2c(C(C)C)cccc2C(C)C)C(=O)C12CCCCC2` [compound (I.21), N-(2,6-Diisopropylphenyl)-2-(2,4-dioxo-1-o-tolyl-1,3-diazaspiro[4.5]dec-3-yl)acetamide] returned a melting point of 238 °C. In turn, `CC(C)c1cccc(C(C)C)c1NC(=O)CN1C(=O)N(Cc2ccccc2)C2(CCCCC2)C1=O` [compound (I.22), 2-(1-Benzyl-2,4-dioxo-1,3-diazaspiro[4.5]dec-3-yl)-N-(2,6-diisopropyl-phenyl)acetamide] registered a melting point of 214 °C. As to `CC(C)c1cccc(C(C)C)c1NC(=O)CN1C(=O)N(c2ccc(Cl)cc2)C2(CCCC2)C1=O` [compound (I.24), 2-[1-(4-Chlorophenyl)-2,4-dioxo-1,3-diazaspiro[4.4]non-3-yl]-N-(2,6-di-isopropylphenyl)acetamide], the melting point amounted to 270 °C. In the case of `CCCN1C(=O)N(CC(=O)Nc2c(C(C)C)cccc2C(C)C)C(=O)C12CCCCC2` [compound (I.25), N-(2,6-Diisopropylphenyl)-2-(2,4-dioxo-1-propyl-1,3-diazaspiro[4.5]dec-3-yl)acetamide], the melting point was 253 °C. The compound `CC(C)c1cccc(C(C)C)c1NC(=O)CN1C(=O)N(CC2CCCCC2)C2(CCCCC2)C1=O` [compound (I.27), 2-(1-Cyclohexylmethyl-2,4-dioxo-1,3-diazaspiro[4.5]dec-3-yl)-N-(2,6-di-isopropylphenyl)acetamide] came in with a melting point of 219 °C. In turn, `CC(C)CN1C(=O)N(CC(=O)Nc2c(C(C)C)cccc2C(C)C)C(=O)C12CCCCC2` [compound (I.28), N-(2,6-Diisopropylphenyl)-2-(1-isobutyl-2,4-dioxo-1,3-diazaspiro[4.5]dec-3-yl)acetamide] came in with a melting point of 233 °C. `CCCCCN1C(=O)N(CC(=O)Nc2c(C(C)C)cccc2C(C)C)C(=O)C12CCCCC2` [compound (I.29), N-(2,6-Diisopropylphenyl)-2-(2,4-dioxo-1-pentyl-1,3-diazaspiro[4.5]dec-3-yl)acetamide] showed a melting point of 200 °C. Then `CCCCCCCN1C(=O)N(CC(=O)Nc2c(C(C)C)cccc2C(C)C)C(=O)C12CCCCC2` [compound (I.30), N-(2,6-Diisopropylphenyl)-2-(1-heptyl-2,4-dioxo-1,3-diazaspiro[4.5]dec-3-yl)acetamide], with 208 °C; and `CC(C)c1cccc(C(C)C)c1NC(=O)CN1C(=O)N(CC2CC2)C2(CCCCC2)C1=O` [compound (I.31), 2-(1-Cyclopropylmethyl-2,4-dioxo-1,3-diazaspiro[4.5]dec-3-yl)-N-(2,6-di-isopropylphenyl)acetamide], with 240 °C; and `CC(C)c1cccc(C(C)C)c1NC(=O)CN1C(=O)N(CC(C)(C)C)C2(CCCCC2)C1=O` [compound (I.32), N-(2,6-Diisopropylphenyl)-2-[1-(2,2-dimethylpropyl)-2,4-dioxo-1,3-diazaspiro[4.5]dec-3-yl]acetamide], with 250 °C. For the compound `COc1ccccc1N1C(=O)N(CC(=O)Nc2c(C(C)C)cccc2C(C)C)C(=O)C12CCCCC2` [compound (I.33), N-(2,6-Diisopropylphenyl)-2-[1-(2-methoxyphenyl)-2,4-dioxo-1,3-diazaspiro[4.5]dec-3-yl]acetamide], the melting point was 229 °C. Compound `Cc1ccc(N2C(=O)N(CC(=O)Nc3c(C(C)C)cccc3C(C)C)C(=O)C23CCCC3)cc1` [compound (I.34), N-(2,6-Diisopropylphenyl)-2-(2,4-dioxo-1-p-tolyl-1,3-diazaspiro[4.4]non-3-yl)acetamide] showed a melting point of 278 °C. Compound `CCCCCCN1C(=O)N(CC(=O)Nc2c(C(C)C)cccc2C(C)C)C(=O)C12CCCCC2` [compound (I.35), N-(2,6-Diisopropylphenyl)-2-(1-hexyl-2,4-dioxo-1,3-diazaspiro[4.5]dec-3-yl)acetamide] came in with a melting point of 205 °C. Then `CCc1ccc(N2C(=O)N(CC(=O)Nc3c(C(C)C)cccc3C(C)C)C(=O)C23CCCCC3)cc1` [compound (I.36), N-(2,6-Diisopropylphenyl)-2-[1-(4-ethylphenyl)-2,4-dioxo-1,3-diazaspiro[4.5]dec-3-yl]acetamide], with 221 °C; and `CCc1ccc(N2C(=O)N(CC(=O)Nc3c(C(C)C)cccc3C(C)C)C(=O)C23CCCC3)cc1` [compound (I.37), N-(2,6-Diisopropylphenyl)-2-[1-(4-ethylphenyl)-2,4-dioxo-1,3-diazaspiro[4.4]non-3-yl]acetamide], with 246 °C. Consider `CCCCc1ccc(N2C(=O)N(CC(=O)Nc3c(C(C)C)cccc3C(C)C)C(=O)C23CCCCC3)cc1` [compound (I.38), 2-[1-(4-Butylphenyl)-2,4-dioxo-1,3-diazaspiro[4.5]dec-3-yl]-N-(2,6-diisopropylphenyl)acetamide], for which the melting point worked out at 220 °C.

Take `CCCCc1ccc(N2C(=O)N(CC(=O)Nc3c(C(C)C)cccc3C(C)C)C(=O)C23CCCC3)cc1` [compound (I.40), 2-[1-(4-Butylphenyl)-2,4-dioxo-1,3-diazaspiro[4.4]non-3-yl]-N-(2,6-diisopropylphenyl)acetamide]: the melting point stood at 228 °C.

Regarding `CC(C)c1cccc(C(C)C)c1NC(=O)CN1C(=O)N(c2ccc(OCc3ccccc3)cc2)C2(CCCC2)C1=O` [compound (I.41), 2-[1-(4-Benzyloxyphenyl)-2,4-dioxo-1,3-diazaspiro[4.4]non-3-yl]-N-(2,6-di-isopropylphenyl)acetamide], the melting point is 232 °C. Then `CC(C)c1cccc(C(C)C)c1NC(=O)CN1C(=O)N(c2ccc(CO)cc2)C2(CCCCC2)C1=O` [compound (I.42), N-(2,6-Diisopropylphenyl)-2-[1-(4-hydroxymethylphenyl)-2,4-dioxo-1,3-diazaspiro[4.5]dec-3-yl]acetamide], with 230 °C.
